{"source": "patent US20240115555A1", "about": "“METHODS OF TREATING CANCER USING B-RAF INHIBITORS AND IMMUNE CHECKPOINT INHIBITORS” (Genentech, Inc., priority 2015, published 2024)", "key": {"PD-L1": {"tested_on": "PD-L1", "assay": "Tissue samples stained for PD-L1 expression", "format": "in vivo, human", "conditions": "patient tissue samples, data not shown", "excerpt": "(§1) Tissue samples were stained for CD8+ T-cells as well as PD-L1 expression. Treatment with vemurafenib alone increased immune tumor CD8+ T-cell infiltration (data not shown). Treatment with either vemurafenib alone or vemurafenib in combination with atezolizumab increased expression of PD-L1 on tumor cells as well as tumor-infiltrating immune cells (data not shown)."}, "[1]": {"tested_on": "metastatic melanoma with the BRAFV600E mutation", "conditions": "cited from earlier work"}, "CD8+ T-cells": {"tested_on": "CD8+ T-cells", "assay": "Tissue samples stained for CD8+ T-cells", "format": "in vivo, human", "conditions": "patient tissue samples, data not shown", "excerpt": "as §1"}, "[2]": {"tested_on": "unresectable or metastatic melanoma", "conditions": "two Phase III studies; cited from earlier work"}, "[3]": {"conditions": "fumarate salt; cited from earlier work"}}}
{"compound": "CCCS(=O)(=O)Nc1ccc(F)c(C(=O)c2c[nH]c3ncc(-c4ccc(Cl)cc4)cc23)c1F", "note": "[vemurafenib, propane-1-sulfonic acid {3-[5-(4-chlorophenyl)-1H-pyrrolo[2,3-b]pyridine-3-carbonyl]-2,4-difluoro-phenyl}-amide]", "values": [{"measurement": "expression of PD-L1 on tumor cells as well as tumor-infiltrating immune cells", "setting": "PD-L1", "value": "increased"}, {"measurement": "improvement in PFS", "setting": "[1]; compared with dacarbazine", "value": 74, "unit": "%"}, {"measurement": "reduction in the risk of death", "setting": "[1]; compared with dacarbazine", "value": 63, "unit": "%"}, {"measurement": "hazard ratio for death", "setting": "[1]; in favor of vemurafenib vs dacarbazine, median follow-up of 12.5 months", "value": "0.70 (95% CI: 0.57, 0.87)"}, {"measurement": "median OS", "setting": "[1]; median follow-up of 12.5 months", "value": 13.6, "unit": "months"}, {"measurement": "Response rates", "setting": "[1]; previously untreated, BRAFV600E mutation", "value": 48, "unit": "%"}, {"measurement": "improvement in median OS", "setting": "[1]; vs dacarbazine, median follow-up of 12.5 months", "value": "~4", "unit": "month"}, {"measurement": "immune tumor CD8+ T-cell infiltration", "setting": "CD8+ T-cells", "value": "increased"}]}
{"compound": "Ipilimumab: humanized immunoglobulin (Ig)G1 monoclonal antibody that blocks cytotoxic T-lymphocyte-associated antigen 4 (CTLA-4)", "values": [{"measurement": "median PFS", "setting": "[2]", "value": 2.8, "unit": "months"}, {"measurement": "overall response rate", "setting": "[2]", "value": 10.9, "unit": "%"}]}
{"compound": "O=C(c1ccc(F)c(F)c1Nc1ccc(I)cc1F)N1CC(O)([C@@H]2CCCCN2)C1", "note": "[Cobimetinib, (S)-(3,4-difluoro-2-(2-fluoro-4-iodophenylamino)phenyl)(3-hydroxy-3-(piperidin-2-yl)azetidin-1-yl)methanone]", "values": [{"measurement": "solubility", "setting": "[3]", "value": "pH dependent solubility"}]}
